The record followed here is US20130203718A1 (priority 2010, published 2013).

The target in one series is T1, hPRB (Homo sapiens, UniProt P06401).
T1 sequence (P06401 1-933): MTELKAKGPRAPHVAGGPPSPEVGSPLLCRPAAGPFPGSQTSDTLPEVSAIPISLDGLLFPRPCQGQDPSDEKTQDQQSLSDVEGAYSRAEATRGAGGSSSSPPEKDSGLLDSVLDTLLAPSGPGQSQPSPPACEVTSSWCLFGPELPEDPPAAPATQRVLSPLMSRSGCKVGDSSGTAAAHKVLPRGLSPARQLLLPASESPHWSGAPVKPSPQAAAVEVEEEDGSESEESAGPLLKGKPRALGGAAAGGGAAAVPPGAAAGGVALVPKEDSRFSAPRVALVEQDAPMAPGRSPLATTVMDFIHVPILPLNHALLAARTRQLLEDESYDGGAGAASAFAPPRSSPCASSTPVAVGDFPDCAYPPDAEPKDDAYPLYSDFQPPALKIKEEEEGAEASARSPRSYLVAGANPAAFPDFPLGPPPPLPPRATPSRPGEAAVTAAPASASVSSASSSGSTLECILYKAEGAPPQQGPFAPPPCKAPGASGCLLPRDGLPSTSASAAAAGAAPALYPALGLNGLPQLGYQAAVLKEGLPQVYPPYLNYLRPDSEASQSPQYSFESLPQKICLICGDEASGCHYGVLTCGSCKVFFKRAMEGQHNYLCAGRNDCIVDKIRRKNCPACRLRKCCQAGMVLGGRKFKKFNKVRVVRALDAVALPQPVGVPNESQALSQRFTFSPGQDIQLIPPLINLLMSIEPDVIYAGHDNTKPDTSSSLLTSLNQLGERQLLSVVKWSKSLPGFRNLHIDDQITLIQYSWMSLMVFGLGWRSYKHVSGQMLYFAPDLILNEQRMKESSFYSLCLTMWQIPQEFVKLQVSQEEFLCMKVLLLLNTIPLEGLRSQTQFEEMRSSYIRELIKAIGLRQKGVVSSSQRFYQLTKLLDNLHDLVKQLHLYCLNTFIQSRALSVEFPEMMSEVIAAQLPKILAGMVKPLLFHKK
The series can be described thus: PR transactivation assay (GRE2-Luc) in HEK293T cells transiently expressing hPRB. It is filed as cell-based. The conditions noted are these: APRn 1 μM. Set-up: expressed in transfected cells; host or cells: HEK 293T. As to the method:
PR Transactivation Assays in HEK 293T.
HEK 293T cells were routinely cultured in a high-glucose DMEM medium (Invitrogene, Cergy Pontoise, France), 20 mM HEPES, 2 mM glutamine, 1× non essential amino acids, 100 U/mL penicillin and 100 μg/mL streptomycin supplemented with 10% foetal calf serum (FCS) in a humidified atmosphere at 37° C. and with 5% CO2. One day before transfection, the cells were seeded at 3×10^6 cells/[…] diameter culture Petri dish and cultured overnight in the same medium. Six hours before transfection, the FCS supplemented medium was replaced by the same medium supplemented with 10% dextran-charcoal treated FCS. Transfections were carried out using the calcium phosphate precipitation method. The calcium phosphate precipitate was prepared with 0.5 μg pchPRB (Petit-Topin, et al Mol Pharmacol, 2009, 75, 1317), 7 μg reporter vector (GRE2-Luc from A. Biola-Vidamment and M. Pallardy) and 1 μg of pcβgal for an internal transfection control, in 1 mL 140 mM NaCl, 0.75 mM Na2HPO4, 25 mM HEPES, 125 mM CaCl2 pH 7.05 and added to the cells 30 minutes later. After 16 h incubation, the transfected cells were washed with PBS containing 2.5 mM EDTA, trypsinized and pooled. The transfected cells were replated in 24-well plates (100.000 transfected cells/well). […] Cells were lysed in 300 μl PBS 1×, 25 mM glycylglycine, 4 mM EDTA, 15% glycerol, 1% triton X-100, 15 mM MgSO4, pH 7.8 supplemented with 2 mM β-mercaptoethanol. The luciferase activities were quantified by using a Mithras LB940 reader microplates (Berthold).
The APRn “agonist efficacy” was determined from the following formula:
Agonist efficacy=[luciferase activity]1/[luciferase activity]2×100
The APRn “antagonist efficacy” was calculated from the following formula:
Antagonist efficacy=100−[luciferase activity]1/[luciferase activity]2×100
The results are the mean±SEM of three to five independent experiments.
All the synthesized APRn were classified in 4 series depending on the nature of their C3 substituent (R1/R′1 groups). The first one (series 1) includes APRn with no C3 substituent (R1═R′1═H) whereas series 2, 3 and 4 are related to APRn bearing a methoxyl (R1═OMe), a hydroxyl (R1═OH) and a fluorine atom (R1═F), respectively. The agonist/antagonist activities of APRn were determined either in human HEK293T cells transiently expressing hPRB or in human MDA-MB-231 iPRAB cells conditionally expressing hPRB, by using a luciferase reporter gene placed under the control of a glucocorticoid response element (GRE2-Luc). The APRn “agonist efficacy” was determined from the luciferase activity measured in the presence of APRn (1 μM). […] The “agonist efficacy” and “antagonist efficacy” are expressed as defined in the biological protocols section.

For another series, the target named is T2, hGR (Homo sapiens, UniProt P04150).
T2 construct: expressed in transfected cells; host or cells: HEK 293T
T2 sequence (P04150 1-777): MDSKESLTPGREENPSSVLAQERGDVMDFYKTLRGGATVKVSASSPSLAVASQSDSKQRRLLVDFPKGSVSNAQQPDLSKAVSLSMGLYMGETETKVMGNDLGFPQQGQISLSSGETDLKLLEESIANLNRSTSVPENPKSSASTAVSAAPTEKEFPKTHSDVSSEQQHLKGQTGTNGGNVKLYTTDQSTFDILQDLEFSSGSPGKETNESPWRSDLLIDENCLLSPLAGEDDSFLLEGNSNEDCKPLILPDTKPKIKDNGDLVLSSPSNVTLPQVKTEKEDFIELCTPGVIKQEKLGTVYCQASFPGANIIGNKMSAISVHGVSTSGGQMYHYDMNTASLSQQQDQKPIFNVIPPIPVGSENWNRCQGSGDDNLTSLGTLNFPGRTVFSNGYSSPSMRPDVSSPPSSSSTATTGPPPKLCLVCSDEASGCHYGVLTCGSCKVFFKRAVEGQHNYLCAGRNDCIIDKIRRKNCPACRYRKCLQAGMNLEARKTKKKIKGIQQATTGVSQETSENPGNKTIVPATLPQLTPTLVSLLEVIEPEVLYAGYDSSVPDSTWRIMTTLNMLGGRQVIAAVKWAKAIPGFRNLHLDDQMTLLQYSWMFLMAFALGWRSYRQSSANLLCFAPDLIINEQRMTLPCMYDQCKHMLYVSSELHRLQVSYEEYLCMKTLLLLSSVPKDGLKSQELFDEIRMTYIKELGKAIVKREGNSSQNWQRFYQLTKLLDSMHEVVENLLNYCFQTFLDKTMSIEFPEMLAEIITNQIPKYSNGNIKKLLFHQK
The series can be described thus: APRn selectivity: transactivation in HEK293T cells transiently expressing hGR. The following applies: HEK293T transiently expressing hGR, mean±SEM. It is filed as cell-based. The procedure: Measurement of the APRn Selectivity in HEK 293T.
The HEK-293T cells were cultured and transfected according to the method described above for the PR transactivation assays. The expression vectors pcDNA-hAR, kindly provided by G. A. Coetzee, pchGR (Hellal-Levy, C et al. FEBS Lett 1999, 464, 9), and pchMR (Fagart, J. et al. EMBO J. 1998, 17, 3317) were used for studying the ability of APRn to activate or inactivate the AR, GR and MR, respectively. For each transfection assays, 2 μg of the expression vector was used together with 7 μg of the GRE2-Luc reporter vector. Dihydrotestosterone (DHT), dexamethasone (Dex) and Aldosterone (Aldo) were selected as AR, GR and MR ligands, respectively. They were used at the concentration of 10^−9 M. The APRn agonist and antagonist efficacy for AR, GR and MR were measured as described above for PR. The results are the mean±SEM of three independent experiments.
Transfection assays were performed in HEK 293T cells by using expression vectors for the hAR, hGR and hMR and the GRE2-Luc reporter used for the PR transactivation assays.

Setting [1] is: series 2-4, stated for both HEK293T and MDA-MB-231 iPRAB cells, FIGS. 3-8.
The mark [2] stands for this setting: series 1 (no C3 substituent), HEK293T, FIG. 1.

For orientation: melting point means the temperature of the solid-liquid transition.

On to `C[C@]12CCC3C(CC=C4C[C@@H](F)CC[C@@H]43)C1CC[C@@H]2O` (stereo partly drawn) [APR-46, 31-Fluoro-19-nor-androst-5-en-17β-ol], for which the melting point was in the range of 121 to 122 °C. Moreover, the “hPRB agonist/antagonist character (in words)” value at hPRB (setting [1]) was “efficient hPRB antagonists”.

`C#C[C@]1(O)CCC2C3CC=C4C[C@@H](F)CC[C@@H]4C3CC[C@@]21C` (stereo partly drawn) [APR-50, 17α-Ethynyl-3β-fluoro-19-nor-androst-5-en-17β-ol] showed a melting point of 149 to 150 °C. Further, the “GR Antagonist efficacy (%)” value on hGR (dexamethasone 10^−9 M) is listed as 7.4 ± 1.9%. At hGR (HEK-293T, read-out: GR Agonist efficacy (%)), the Emax is 0.25 ± 0.1%.

In turn, `C[C@]12CCCC[C@@H]1CC[C@@H]1[C@@H]2CC[C@]2(C)C(=O)CC[C@@H]12` [APR-23, 5α-Androstan-17-one] had a melting point of 120 to 121 °C. For the same compound, the “hPRB agonist/antagonist character (in words)” value at hPRB (setting [2]) is given as “full antagonists”.

With `C[C@H](O)[C@H]1CCC2C3CC=C4C=CCC[C@]4(C)C3CC[C@@]21C` (stereo partly drawn) [APR-11, pregn-3,5-dien-20-ol], the melting point was 103 to 104 °C. For the same compound, the “hPRB agonist/antagonist character (in words)” value at hPRB (setting [2]) was “full antagonists”.

In the case of `C#C[C@]1(O)CCC2C3CC[C@H]4C[C@@H](F)CC[C@]4(C)C3CC[C@@]21C` (stereo partly drawn) [APR-36, 17α-Ethynyl-3β-fluoro-5α-androstan-17β-ol], the melting point was in the range of 225 to 226 °C. Besides, the “hPRB agonist/antagonist character (in words)” value at hPRB (setting [1]) is on record as “efficient hPRB antagonists”.

For the compound `CC(=O)O[C@H]1CCC2C3CC=C4C[C@@H](F)CC[C@@H]4C3CC[C@@]21C` (stereo partly drawn) [APR-45, 17β-Acetoxy-3β-fluoro-19-nor-androst-5-ene], the melting point is 104 to 105 °C. In addition, the “hPRB agonist/antagonist character (in words)” value at hPRB (setting [1]) was “efficient hPRB antagonists”.

With `C#C[C@]1(O)CCC2C3CC[C@H]4CCCC[C@]4(C)C3CC[C@@]21C` (stereo partly drawn) [APR-32, 17α-Ethynyl-5α-androstan-17β-ol], the melting point was in the range of 152 to 153 °C. The “hPRB agonist/antagonist character (in words)” value at hPRB (setting [2]) is reported as “full antagonists”.

`C[C@]12CC[C@H](F)CC1=CC[C@@H]1[C@@H]2CC[C@]2(C)C(=O)CC[C@@H]12` [APR-33, 3β-Fluoroandrost-5-en-17-one] displayed a melting point of 155 to 156 °C. The “hPRB agonist/antagonist character (in words)” value at hPRB (setting [1]) is listed as “efficient hPRB antagonists”.

Consider `CO[C@H]1CC[C@@]2(C)C(=CC[C@H]3[C@@H]4CC[C@H](C(C)O)[C@@]4(C)CC[C@@H]32)C1` (mixture of isomers) [APR-27, 3β-Methoxypregn-5-en-20-ol], for which the melting point lay in the range of 124 to 125 °C. In addition, at hPRB (setting [1]), the “hPRB agonist/antagonist character (in words)” value is “antagonist character without any agonist activity”.

Compound `C#CC(C)(O)[C@H]1CC[C@H]2[C@@H]3CC=C4C[C@@H](OC)CC[C@]4(C)[C@H]3CC[C@]12C` (stereo partly drawn) [APR-31, 20-Ethynyl-3β-methoxypregn-5-en-20-ol] displayed a melting point of 175 to 176 °C. The “hPRB agonist/antagonist character (in words)” value on hPRB (setting [1]) is “antagonist character without any agonist activity”.
